For data set [1], the system named is CGRP. The note with it: mean ± SEM, cited from earlier work.
Data set [2] concerns CGRP. Also noted: method as in PMID 16472331. The settings on record: MWA, mean ± SEM, cited from earlier work.
Data set [3] has as its system CGRP. Also on record: method as in PMID 8388188. The note with it: 8 migraineurs, ictal, subcutaneous sumatriptan, mean ± SE; pre-treatment 60 ± 8; cited from earlier work.
Data set [4] has as its system CGRP. Also noted: method as in PMID 15689192. The settings on record: MWA, ictal, cited from earlier work.
Data set [5] in a line: Influence of sample processing time: serum kept at 4°C before freezing at -80°C, sandwich ELISA. It is filed as in vitro ADME, human. As to the method: (§1) We tested 4 different ELISA kit references with serum samples, 2 based on competitive ELISA (Biorbyt, UK, ref: orb438605; BMA Biomedicals, Switzerland, ref: S-1198), specifically designed for the detection of total-CGRP, and 2 based on ELISA sandwich (Abbexa, UK, ref: abx257902; CUSABIO, China, ref: CSB-E08210h), designed for the detection of alpha and beta-CGRP, respectively. All 4 of these products were assayed multiple times (at least 4 for each kit reference) to analyse the optimal dilutions of the samples, their reproducibility and their reported concentrations. All the procedures were carried out strictly following the manufacturer’s instructions of use of their products, they were performed by the same researcher, using the same equipment, and in the same facilities. […] All the samples were measured in duplicate, obtained from morning blood extractions, 9–12 am, from patients in a fast of at least 12h. These samples were let to clot for 10–15 min, centrifuged at 3500 rpm for 10 min and then immediately stored at -80°C until assayed. A standard curve was generated for every single batch, and they were calculated using a 4-parameter logistic (4-PL) regression with r^2 > 0.999.
We recruited 6 individuals without history of migraine and subjective absence of headache at the day of the sampling (50% male; age range: 24–65 years). […] The blood was then let to clot for 10 min at room temperature, then centrifuged at 3500 rpm for 10 min to obtain serum. Serum was divided into 4 tubes. First one was immediately stored at -80°C, the other three were kept in the refrigerator at 4°C for, 2, 4 and 24 h respectively before frozen. None of the samples were added peptidase inhibitor. These samples were measured by triplicate.

For data set [6] the following is noted: frozen samples; cited from earlier work. From the text: Another point recurrently mentioned in the literature is the long-term stability of the molecules when frozen. […] This opens up the question about whether c ...
The nature of data set [7]: Long-term storage of serum at -80°C, sandwich ELISA. It is filed as in vitro ADME. The note with it: human serum. On the procedure: as §1
We assayed 11 consecutive samples from previous works (36.4% male; age range: 26–65) that had been stored at -80°C for more than 6 months and which had been assayed altogether before being stored for a month and before reaching this time point.

For data set [8] the following is noted: infused in humans; cited from earlier work. From the text: The relevance of the peptide goes beyond its use as a therapeutical target, having been proposed as a biomarker in migraine.
In data set [9] the test system is CGRP. The settings on record: 32 MWA; exact values not displayed; cited from earlier work. The text has this:
Table 1 Charasteristics of the studies measuring CGRP in migraine patients | column: Main findings relate to CGRP

Data set [10] relates to CGRP. The note with it: cited from earlier work; for plasma CGRP 4 months after treatment cessation (V2), median (IQR) / plasma CGRP at last injection (V1), median (IQR): EM and CM patients, controls 32.6(21.3–44.6). From the text:
Table 1 Charasteristics of the studies measuring CGRP in migraine patients | column: Concentrations

Setting [11] is: EM without aura, mean ± SD, T0 86.9 ± 24.1.
Setting [12] is: healthy controls, mean ± SD, T0 87.9 ± 21.3.

The source of these data is paper PMC11057141, “Untangling the mess of CGRP levels as a migraine biomarker: an in-depth literature review and analysis of our experimental experience” (The Journal of Headache and Pain, 2024).

No end group written: not given here.

On to `O=[N+]([O-])OCC(CO[N+](=O)[O-])O[N+](=O)[O-]` [nitroglyceri, nitroglycerin], for which, in the data set with CGRP [1] (basal 15.1 ± 2.0), the “plasma CGRP, controls T1” value is listed as 17.5 pmol/L; the “plasma CGRP, controls T2” value was 16.5 pmol/L; the “plasma CGRP, controls T3” value is 15.3 pmol/L. In the data set on CGRP [1] (basal 18.4 ± 1.7), the “plasma CGRP, migraineurs T1” value is 19.7 pmol/L; the “plasma CGRP, migraineurs T2” value was 22.2 pmol/L; the “plasma CGRP, migraineurs T3” value is on record as 21.0 pmol/L.
Consider `CN(C)CCc1c[nH]c2ccc(Cn3cncn3)cc12` [rizatriptan], for which, in the data set with CGRP [2] (before rizatriptan 7.4 ± 2.4), the “plasma (JV) CGRP, non-responders 1 h” value was 7.6 pmol/L; the “plasma (JV) CGRP, non-responders 2 h” value is on record as 7.9 pmol/L; the “plasma (JV) CGRP, non-responders 4 h” value is recorded as 7.7 pmol/L; the “plasma (JV) CGRP, non-responders 6 h” value is reported as 7.3 pmol/L. Also, in the data set on CGRP [2] (before rizatriptan 7.4 ± 2.4), the “plasma (JV) CGRP, non-responders 12 h” value is 7.2 pmol/L. Also, in the data set on CGRP [2] (before rizatriptan 12.2 ± 3.2), the “plasma (JV) CGRP, responders 1 h” value was 7.6 pmol/L; the “plasma (JV) CGRP, responders 2 h” value is reported as 3.4 pmol/L; the “plasma (JV) CGRP, responders 4 h” value was 2.6 pmol/L; the “plasma (JV) CGRP, responders 6 h” value is given as 2.3 pmol/L. In the data set with CGRP [2] (before rizatriptan 12.2 ± 3.2), the “plasma (JV) CGRP, responders 12 h” value was 2.1 pmol/L.
Regarding `CNS(=O)(=O)Cc1ccc2[nH]cc(CCN(C)C)c2c1` [sumatriptan], the “plasma (JV) CGRP post-treatment” value with CGRP [3] was 40 pmol/L. For the same molecule, in the data set with CGRP [4] (n = 6, mean ± SEM, before 16.9 ± 2.8), the “plasma CGRP 1 h after sumatriptan, responders” value was 14.7 pmol/L. In the data set with CGRP [4] (n = 13, mean ± SEM, before 24.3 ± 2.5), the “plasma CGRP 1 h after sumatriptan, non-responders” value is 23.8 pmol/L.
For the molecule Calcitonin gene-related peptide [CGRP], in data set [5] (first 24 h at 4°C after clotting and immediate centrifugation), the “CGRP content in serum stored at 4°C” value is reported as “preserved”. Besides, the “effect of frozen storage of 8 months on CGRP concentration” value in [6] is “significantly decrease”. Further, the “effect of storage at -80°C of more than 6 months on CGRP levels” value in [7] was “decrease”. Further, in [8], the “effect of infusion in humans” value is “induction of migraine-like headaches”.
Turning to “Pituitary adenylate cyclase activating peptide-38 (HSDGIFTDSYSRYRKQMAVKKYLAAVLGKRYKQRVKNK; ends and bridges not checked; UniProt P18509 132-169, looked up) [PACAP38]”, the “effect of PACAP38 infusion on CGRP concentrations” value with CGRP [9] is reported as “PACAP38 infusion do not causes changes in CGRP concentrations”.
Consider “Vasoactive intestinal peptide (HSDAVFTDNYTRLRKQMAVKKYLNSILN; ends and bridges not checked; UniProt P01282 125-152, looked up) [VIP]”, for which, in the data set on CGRP [10] (setting [11]), the “plasma CGRP, VIP infusion Migraine T30” value is 94.2 pg/mL; the “plasma CGRP, VIP infusion Migraine T60” value is 95.1 pg/mL; the “plasma CGRP, VIP infusion Migraine T90” value was 87.5 pg/mL; the “plasma CGRP, VIP infusion Migraine T120” value is listed as 88.7 pg/mL. In addition, in the data set with CGRP [10] (setting [11]), the “plasma CGRP, VIP infusion Migraine T150” value is reported as 85.1 pg/mL and the “plasma CGRP, VIP infusion Migraine T180” value is recorded as 83.3 pg/mL. Also, in the data set with CGRP [10] (setting [12]), the “plasma CGRP, VIP infusion HC T30” value was 102.1 pg/mL; the “plasma CGRP, VIP infusion HC T60” value is 109.3 pg/mL; the “plasma CGRP, VIP infusion HC T90” value was 104.1 pg/mL; the “plasma CGRP, VIP infusion HC T120” value is 110.1 pg/mL. Further, in the data set with CGRP [10] (setting [12]), the “plasma CGRP, VIP infusion HC T150” value is 97.8 pg/mL and the “plasma CGRP, VIP infusion HC T180” value is reported as 98.2 pg/mL.
In the case of “beta-CGRP: endogenous neuropeptide encoded in CALCB, differs from alpha-CGRP in 3 of 37 amino acids”, the “serum concentration after 2 h at 4°C” value in [5] (human serum, no peptidase inhibitor, 2 h at 4°C before -80°C, ELISA Abbexa (alpha) / CUSABIO (beta), mean ± SD, 6 subjects, triplicate) was found to be 4.9 ± 1.7 pg/mL. The “serum concentration after 4 h at 4°C” value in data set [5] (human serum, no peptidase inhibitor, 4 h at 4°C before -80°C, ELISA Abbexa (alpha) / CUSABIO (beta), mean ± SD, 6 subjects, triplicate) is reported as 4.7 ± 1.5 pg/mL. Further, the “serum concentration after 24 h at 4°C” value in data set [5] (human serum, no peptidase inhibitor, 24 h at 4°C before -80°C, ELISA Abbexa (alpha) / CUSABIO (beta), mean ± SD, 6 subjects, triplicate) is given as 4.4 ± 1.8 pg/mL. Also, in data set [5] (human serum, no peptidase inhibitor, clot 10 min RT, 3500 rpm 10 min, immediately -80°C, ELISA Abbexa (alpha) / CUSABIO (beta), mean ± SD, 6 subjects, triplicate), the “serum concentration, deep frozen right away” value was found to be 4.6 ± 1.6 pg/mL. Moreover, the “serum concentration, measured before one month of storage at -80°C” value in data set [7] (11 samples, ELISA Abbexa (alpha) / CUSABIO (beta), mean ± SD) was determined as 4.9 ± 2.0 pg/mL. Besides, the “serum concentration after more than 6 months of storage at -80°C” value in [7] (same 11 samples, ELISA Abbexa (alpha) / CUSABIO (beta), mean ± SD, p < 0.01 vs first measurement) is 3.0 ± 1.3 pg/mL.

B1: Fremanezumab: anti-CGRP monoclonal antibody (antibody, chains of the INN, looked up, V domains shown)
VH: EVQLVESGGGLVQPGGSLRLSCAASGFTFSNYWISWVRQAPGKGLEWVAEIRSESDASATHYAEAVKGRFTISRDNAKNSLYLQMNSLRAEDTAVYYCLAYFDYGLAIQNYWGQGTLVTVSS
VL: EIVLTQSPATLSLSPGERATLSCKASKRVTTYVSWYQQKPGQAPRLLIYGASNRYLGIPARFSGSGSGTDFTLTISSLEPEDFAVYYCSQSYNYPYTFGQGTKLEIK
Take B1: in the data set with CGRP [10], the “plasma CGRP 4 months after treatment cessation (V2), median (IQR)” value (“plasma CGRP 4 months” for short) was 34.3 pg/mL and the “plasma CGRP at last injection (V1), median (IQR)” value (shortened to “plasma CGRP at last injection”) is given as 29.4 pg/mL.

B2: Galcanezumab: anti-CGRP monoclonal antibody (antibody, chains of the INN, looked up, V domains shown)
VH: QVQLVQSGAEVKKPGSSVKVSCKASGYTFGNYWMQWVRQAPGQGLEWMGAIYEGTGKTVYIQKFADRVTITADKSTSTAYMELSSLRSEDTAVYYCARLSDYVSGFGYWGQGTTVTVSS
VL: DIQMTQSPSSLSASVGDRVTITCRASKDISKYLNWYQQKPGKAPKLLIYYTSGYHSGVPSRFSGSGSGTDFTLTISSLQPEDFATYYCQQGDALPPTFGGGTKVEIK
As to B2, in the data set on CGRP [10], the “plasma CGRP 4 months” value is listed as 1853.2 pg/mL and the “plasma CGRP at last injection” value was 5439.3 pg/mL.

B3: Erenumab: anti-CGRP(-receptor) monoclonal antibody (antibody, chains of the INN, looked up, V domains shown)
VH: QVQLVESGGGVVQPGRSLRLSCAASGFTFSSFGMHWVRQAPGKGLEWVAVISFDGSIKYSVDSVKGRFTISRDNSKNTLFLQMNSLRAEDTAVYYCARDRLNYYDSSGYYHYKYYGMAVWGQGTTVTVSS
VL: QSVLTQPPSVSAAPGQKVTISCSGSSSNIGNNYVSWYQQLPGTAPKLLIYDNNKRPSGIPDRFSGSKSGTSTTLGITGLQTGDEADYYCGTWDSRLSAVVFGGGTKLTVL
Turning to B3, in the data set with CGRP [10] (94 erenumab treated EM and CM, basal 14.1 (8.2–33.9)), the “serum CGRP at T1, median (IQR)” value is listed as 13.8 pg/mL. For the same molecule, in the data set on CGRP [10], the “plasma CGRP 4 months” value is recorded as 30.3 pg/mL and the “plasma CGRP at last injection” value is given as 31.2 pg/mL. Besides, the “salivary CGRP at M3, EM without depression” value with CGRP [10] (mean ± SD, basal 198.90 ± 27.89) is recorded as 235.05 pg/mL. Further, the “salivary CGRP at M3, CM with depression” value in the data set on CGRP [10] (n = 6, mean ± SD, basal 460.69 ± 57.24) is given as 446.99 pg/mL. Further, the “salivary CGRP at M3, CM without depression” value in the data set with CGRP [10] (n = 10, mean ± SD, basal 194.34 ± 43.75) is recorded as 256.34 pg/mL.
